From PubChem BioAssay (NCI)
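The compound was tested at five concentrations on cells cultured in 96-well plates, with a 48-hour exposure period. The concentration for 50% growth inhibition is given as GI50. TGI: concentration producing complete growth inhibition.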

Legend:
Assay in all cases: inhibition of tumour cell growth, NCI panel, 48 h
NCI-H23 lung = test system: NCI-H23 lung
BT-549 breast = test system: BT-549 breast
HOP-92 NSCLC = test system: HOP-92 NSCLC
UACC-257 melanoma = test system: UACC-257 melanoma
PC-3 prostate = test system: PC-3 prostate
MOLT-4 leukemia = test system: MOLT-4 leukemia
DU-145 prostate = test system: DU-145 prostate
COLO 205 colon = test system: COLO 205 colon
HCT-15 colon = test system: HCT-15 colon
K-562 leukemia = test system: K-562 leukemia

SMILES | TGI (NCI-H23 lung) | TGI (BT-549 breast) | TGI (HOP-92 NSCLC) | TGI (UACC-257 melanoma) | TGI (PC-3 prostate) | TGI (MOLT-4 leukemia) | TGI (DU-145 prostate) | TGI (COLO 205 colon) | TGI (HCT-15 colon) | TGI (K-562 leukemia) | GI50 (NCI-H23 lung) | GI50 (BT-549 breast) | GI50 (HOP-92 NSCLC) | GI50 (K-562 leukemia) | GI50 (PC-3 prostate) | GI50 (DU-145 prostate) | GI50 (HCT-15 colon) | GI50 (UACC-257 melanoma) | GI50 (MOLT-4 leukemia) | GI50 (COLO 205 colon)
Cc1ccn2c(CCc3nnc4cc(C)ccn34)nnc2c1 | > 100 µM | > 100 µM | > 100 µM | > 100 µM | > 100 µM | > 100 µM | > 100 µM | > 100 µM | > 100 µM |  |  |  |  |  |  |  |  |  |  | 
CCCCCCCCCCCCCCCC(=O)OCC1OC(OC)C2NP(=O)(N(CCCl)CCCl)OC1C2O (centres undefined) | 6.76 µM | 5.96 µM | 5.51 µM | 42.9 µM | 18.9 µM | 0.968 µM | 54.8 µM | 13.5 µM | 14.2 µM | 24 µM |  |  |  |  |  |  |  |  |  | 
OCCNCCCOc1ccc2ncnc(Nc3ccc(Oc4cccc(C(F)(F)F)c4)c(Cl)c3)c2c1 | 3.13 µM | 4.25 µM | 2.37 µM |  | 3.21 µM |  | 2.66 µM |  | 3.01 µM | 4.48 µM | 1.63 µM | 1.82 µM | 1.05 µM | 1.79 µM | 1.66 µM | 1.33 µM | 1.54 µM |  |  | 
CN1CCN(Cc2ccc(NC(=O)c3cncc(C#Cc4cncc5nccnc45)c3)cc2C(F)(F)F)CC1 | 11 µM | 11.2 µM |  | 6.27 µM | 32.2 µM | 13.2 µM | 9.6 µM | 7.11 µM | 12.9 µM | 9.86 µM | 2.16 µM | 5.27 µM |  | 0.005 µM | 4.73 µM | 3.22 µM | 2.51 µM | 1.48 µM | 1.89 µM | 0.904 µM
C[C@]1(Cn2ccnn2)C(C(=O)O)N2C(=O)CC2S1(=O)=O (some centres undefined) | > 100 µM | > 100 µM | > 100 µM | > 100 µM | > 100 µM |  | > 100 µM | > 100 µM | > 100 µM | > 100 µM | > 100 µM | > 100 µM | > 100 µM | > 100 µM | > 100 µM | > 100 µM | > 100 µM | > 100 µM |  | > 100 µM
CC1(C)C(=O)/C=C\C(=O)C(C)(C)C(=O)/C=C\C(=O)C(C)(C)C(=O)/C=C\C(=O)C(C)(C)C(=O)/C=C\C1=O | 51.6 µM |  | 29.1 µM | 63.9 µM | > 100 µM | 26.7 µM | > 100 µM | 33.2 µM | 61.5 µM | 39.4 µM |  |  |  |  |  |  |  |  |  | 
COC(=O)/C=C1/SC(N2N=C(c3cccs3)CC2c2ccc(F)cc2)=NC1=O (centres undefined) | 5.82 µM | 8.09 µM | 5.67 µM | 6.83 µM | 4.3 µM | 7.25 µM | 4.75 µM | 4.27 µM | 4.44 µM |  | 2.33 µM | 3.21 µM | 2.4 µM |  | 1.92 µM | 2.12 µM | 1.95 µM | 2.39 µM | 2.65 µM | 2.15 µM
c1cncc(C2Nc3cccc4cccc(c34)N2)c1 | > 100 µM | 95 µM | 61.2 µM |  | 46.7 µM | > 100 µM | > 100 µM | 46.6 µM | > 100 µM | > 100 µM | 77.6 µM | 29.5 µM | 22.3 µM | 28.8 µM | 18.5 µM | > 100 µM | 26.3 µM |  | 42.5 µM | 22.6 µM
